Reference: publication PMC8259857, “Anti-tubercular activity and molecular docking studies of indolizine derivatives targeting mycobacterial InhA enzyme” (Journal of Enzyme Inhibition and Medicinal Chemistry, 2021)
Values after ≈ are worked out from the molar mass of the structure shown.

Experiments:
[1] = tested on: susceptible H37Rv MTB strain (ATCC 25177); assay: Resazurin Microplate Assay (REMA), whole-cell anti-tubercular activity against H37Rv; type: cell-based, Mycobacterium tuberculosis; conditions: for MIC: Mycobacterium tuberculosis, read-out: MIC H37Rv; for MIC H37Rv: H37Rv ATCC 25177, NA: not active at the concentration range (0.2–64 μg/mL)

CCOC(=O)c1cc(C(=O)c2ccc(Cl)cc2)n2ccccc12 [Compound 2b]
MIC [1]: 8 µg/mL (≈ 24.4 µM)

CCOC(=O)c1cc(C(=O)c2ccc(Br)cc2)n2ccccc12 [Compound 2c]
MIC [1]: 32 µg/mL (≈ 86 µM)

CCOC(=O)c1cc(C(=O)c2ccc([N+](=O)[O-])cc2)n2ccccc12 [Compound 2d]
MIC [1]: 8 µg/mL (≈ 23.6 µM)

CCOC(=O)c1cc(C(=O)c2ccc(C)cc2)n2ccccc12 [Compound 2e]
MIC H37Rv [1]: completely abolished the activity

CCOC(=O)c1cc(C(=O)c2ccc(C#N)cc2)n2ccccc12 [Compound 2f]
MIC H37Rv [1]: completely abolished the activity

CCOC(=O)c1c(C)c(C(=O)c2ccc(F)cc2)n2ccccc12 [Compound 3a]
MIC [1]: 4 µg/mL (≈ 12.3 µM)

CCOC(=O)c1c(C)c(C(=O)c2ccc(Cl)cc2)n2ccccc12 [Compound 3b]
MIC [1]: 32 µg/mL (≈ 93.6 µM)

CCOC(=O)c1c(C)c(C(=O)c2ccc([N+](=O)[O-])cc2)n2ccccc12 [Compound 3d]
MIC [1]: 8 µg/mL (≈ 22.7 µM)

CCOC(=O)c1c(C(=O)OCC)c2ccccn2c1C(=O)c1ccc(F)cc1 [Compound 4a, Diethyl-3-(4-fluorobenzoyl)indolizine-1,2-dicarboxylate]
melting point: 138 to 139 °C
MIC [1]: 8 µg/mL (≈ 20.9 µM)

CCOC(=O)c1c(C(=O)OCC)c2ccccn2c1C(=O)c1ccc(Cl)cc1 [Compound 4b, Diethyl-3-(4-chlorobenzoyl)indolizine-1,2-dicarboxylate]
melting point: 137 to 138 °C
MIC [1]: 8 µg/mL (≈ 20 µM)

CCOC(=O)c1c(C(=O)OCC)c2ccccn2c1C(=O)c1ccc([N+](=O)[O-])cc1 [Compound 4c, Diethyl-3-(4-nitrobenzoyl)indolizine-1,2-dicarboxylate]
melting point: 111 to 112 °C
MIC [1]: 32 µg/mL (≈ 78 µM)

NNC(=O)c1ccncc1 [Isoniazid, reference compound]
MIC [1]: < 0.2 µg/mL

CO[C@H]1/C=C/O[C@@]2(C)Oc3c(C)c(O)c4c(O)c(c(/C=N/N5CCN(C)CC5)c(O)c4c3C2=O)NC(=O)/C(C)=C\C=C\[C@H](C)[C@H](O)[C@@H](C)[C@@H](O)[C@@H](C)[C@H](OC(C)=O)[C@@H]1C [Rifampicin, reference compound]
MIC [1]: < 1 µg/mL
